# Results reported in ChEMBL document CHEMBL6109103, “Dodecapeptides derived from human cathelicidin with potent activity against carbapenem-resistant Acinetobacter baumannii” (Eur J Med Chem, 2025).
# Active and inactive are the calls of the source. The calls are words filed in the database; no cut-off is given here. Positions of bridges follow the written chain, without caps; N, C: chain ends. Non-standard residues stand in square brackets, D forms with d. Residues, ends and D or L forms follow the SMILES beside them. S5 = C=CCCC[C@](C)(N)C(=O)O
# Key:
# Acinetobacter baumannii [1] = experiment: Antibacterial activity against multidrug-resistant Acinetobacter baumannii assessed as inhibition of bacterial growth incubated for 24 hrs by broth dilution assay; assay type: functional
# Acinetobacter baumannii [2] = experiment: Antibacterial activity against Acinetobacter baumannii ATCC 19606 assessed as inhibition of bacterial growth incubated for 24 hrs by broth dilution assay; assay type: functional
# Staphylococcus aureus [3] = experiment: Antibacterial activity against Methicillin-resistant Staphylococcus aureus ATCC 43300 assessed as inhibition of bacterial growth incubated for 24 hrs by broth dilution assay; assay type: functional
# Staphylococcus aureus [4] = experiment: Antibacterial activity against Staphylococcus aureus […] assessed as inhibition of bacterial growth incubated for 24 hrs by broth dilution assay; assay type: functional
# Acinetobacter baumannii [5] = experiment: Antibacterial activity against carbapenem-resistant Acinetobacter baumannii clinical isolate 1 assessed as inhibition of bacterial growth incubated for 24 hrs by broth dilution assay; assay type: functional
# Acinetobacter baumannii [6] = experiment: Antibacterial activity against carbapenem-resistant Acinetobacter baumannii clinical isolate 2 assessed as inhibition of bacterial growth incubated for 24 hrs by broth dilution assay; assay type: functional
# Acinetobacter baumannii [7] = experiment: Antibacterial activity against carbapenem-resistant Acinetobacter baumannii clinical isolate 3 assessed as inhibition of bacterial growth incubated for 24 hrs by broth dilution assay; assay type: functional
# Acinetobacter baumannii [8] = experiment: Antibacterial activity against carbapenem-resistant Acinetobacter baumannii clinical isolate 4 assessed as inhibition of bacterial growth incubated for 24 hrs by broth dilution assay; assay type: functional
# Acinetobacter baumannii [9] = experiment: Antibacterial activity against carbapenem-resistant Acinetobacter baumannii clinical isolate 5 assessed as inhibition of bacterial growth incubated for 24 hrs by broth dilution assay; assay type: functional
# Acinetobacter baumannii [10] = experiment: Antibacterial activity against carbapenem-resistant Acinetobacter baumannii clinical isolate 6 assessed as inhibition of bacterial growth incubated for 24 hrs by broth dilution assay; assay type: functional
# Acinetobacter baumannii [11] = experiment: Antibacterial activity against carbapenem-resistant Acinetobacter baumannii clinical isolate 7 assessed as inhibition of bacterial growth incubated for 24 hrs by broth dilution assay; assay type: functional
# Acinetobacter baumannii [12] = experiment: Antibacterial activity against carbapenem-resistant Acinetobacter baumannii clinical isolate 8 assessed as inhibition of bacterial growth incubated for 24 hrs by broth dilution assay; assay type: functional
# Acinetobacter baumannii [13] = experiment: Synergistic antibacterial activity against carbapenem-resistant Acinetobacter baumannii clinical isolate 6 in presence of CTX by microdilution checkerboard assay; assay type: functional, organism-based
# Acinetobacter baumannii [14] = experiment: Synergistic antibacterial activity against carbapenem-resistant Acinetobacter baumannii clinical isolate 6 in presence of tetracycline by microdilution checkerboard assay; assay type: functional, organism-based
# proteinase K = experiment: Proteolytic stability assessed as proteinase K (unknown origin)-mediated drug degradation at 500 microg/ml measured for 20 mins by LC-MS analysis; assay type: ADME, Homo sapiens; settings: at 500 µg/mL, read-out: Drug degradation
# Pseudomonas aeruginosa = experiment: Antibacterial activity against human Pseudomonas aeruginosa assessed as inhibition of bacterial growth; assay type: functional, organism-based
# Escherichia coli = experiment: Antibacterial activity against human Escherichia coli assessed as inhibition of bacterial growth; assay type: functional, organism-based
# [15] = Binding affinity to gram negative bacterial lipid II assessed as dissociation constant by BLI analysis; set-up: species or system Bacteria
# Lipoteichoic acid = experiment: Binding affinity to […] bacterial Lipoteichoic acid assessed as dissociation constant by BLI analysis; set-up: species or system Bacteria
# Acinetobacter baumannii [16] = experiment: Induction of morphological changes in carbapenem-resistant Acinetobacter baumannii at 6.25 microg/ml measured for 24 hrs by SEM analysis; assay type: functional, organism-based; settings: dose 6.25 µg/ml
# HaCaT = experiment: Cytotoxicity against human HaCaT cells assessed as cell death up to 100 microg/ml measured upto 24 hrs; assay type: toxicity, cell-based; settings: dose < 100 µg/ml
# [17] = Hemolytic activity at mouse RBC assessed as hemolysis; assay type: toxicity, cell-based, Erythrocyte; settings: mouse red blood cells, read-out: Activity
# [18] = Toxicity in BALB/c mouse assessed as animal survival at 4 to 64 mg/kg, ip measured for 5 days; assay type: organism-based; settings: in vivo, 120 h, dose 4-64 mg/kg, time 5 day
# [19] = Toxicity in BALB/c mouse assessed as heart damage at 64 mg/kg, ip measured for 3 days by H and E staining based analysis; assay type: organism-based; settings: in vivo, 72 h, time 3 day
# [20] = Toxicity in BALB/c mouse assessed as liver damage at 64 mg/kg, ip measured for 3 days by H and E staining based analysis; assay type: organism-based; settings: in vivo, 72 h, time 3 day
# [21] = Toxicity in BALB/c mouse assessed as spleen damage at 64 mg/kg, ip measured for 3 days by H and E staining based analysis; assay type: organism-based; settings: in vivo, 72 h, time 3 day
# [22] = Toxicity in BALB/c mouse assessed as lung damage at 64 mg/kg, ip measured for 3 days by H and E staining based analysis; assay type: organism-based; settings: in vivo, 72 h, time 3 day
# [23] = Toxicity in BALB/c mouse assessed as kidney damage at 64 mg/kg, ip measured for 3 days by H and E staining based analysis; assay type: organism-based; settings: in vivo, 72 h, time 3 day
# Acinetobacter baumannii [24] = experiment: Antibacterial activity against carbapenem-resistant Acinetobacter baumannii clinical isolate 6 infected in BALB/c mouse assessed as survival rate at 1.25 mg/kg, NAS administered once a day for 3 days; assay type: functional; settings: 72 h, time 3 day
# [25] = Toxicity in BALB/c mouse assessed as animal survival at 1.25 mg/kg, NAS measured for 5 days; assay type: organism-based; settings: in vivo, inhaled or intranasal, time 5 day
# HUVEC = experiment: Cytotoxicity against HUVEC cells assessed as cell death up to 50 microg/ml measured up to 24 hrs; assay type: toxicity, cell-based; settings: human, up to 50 µg/mL
# A549 = experiment: Cytotoxicity against human A549 cells assessed as cell death up to 50 microg/ml measured up to 24 hrs; assay type: toxicity, cell-based; settings: a549, 24 h, up to 50 µg/mL
# Acinetobacter baumannii [26] = experiment: Antibacterial activity against carbapenem-resistant Acinetobacter baumannii clinical isolate 6 assessed as bacterial killing at 3.16 microg/ml measured within 10 mins relative to control; assay type: functional; settings: dose 3.16 µg/ml
# Acinetobacter baumannii [27] = experiment: Antibacterial activity against carbapenem-resistant Acinetobacter baumannii clinical isolate 6 assessed as bacterial killing at 3.16 microg/ml measured for 1 hr in presence of NaCl; assay type: functional, organism-based; settings: dose 3.16 µg/ml
molecule,measurement,setting,value
CC[C@H](C)[C@H](NC(=O)[C@H](CCCNC(=N)N)NC(=O)[C@@H](N)CCCCN)C(=O)N[C@@]1(C)CCC/C=C\CCC[C@@](C)(C(=O)N[C@H](C(=O)N[C@@H](Cc2ccccc2)C(=O)N[C@@H](CC(C)C)C(=O)N[C@@H](CCCNC(=N)N)C(=O)O)[C@@H](C)CC)NC(=O)[C@H]([C@@H](C)CC)NC(=O)[C@H](CCCNC(=N)N)NC(=O)[C@H](CCCNC(=N)N)NC1=O (H-KRI[S5]RRI[S5]IFLR-OH; staple (Z) 4-8),MIC,Acinetobacter baumannii [1],5 µg/mL
same,MIC,Acinetobacter baumannii [2],5 µg/mL
same,MIC,Staphylococcus aureus [3],80 µg/mL
same,MIC,Staphylococcus aureus [4],80 µg/mL
same,MIC,Acinetobacter baumannii [5],5 µg/mL
same,MIC,Acinetobacter baumannii [6],10 µg/mL
same,MIC,Acinetobacter baumannii [7],5 µg/mL
same,MIC,Acinetobacter baumannii [8],10 µg/mL
same,MIC,Acinetobacter baumannii [9],5 µg/mL
same,MIC,Acinetobacter baumannii [10],2.5 µg/mL
same,MIC,Acinetobacter baumannii [11],20 µg/mL
same,MIC,Acinetobacter baumannii [12],5 µg/mL
same,Activity,Acinetobacter baumannii [13],Active
same,Activity,Acinetobacter baumannii [14],Active
same,"metabolised at 20 min, 500 microg/ml",proteinase K,17.8%
same,Activity,Pseudomonas aeruginosa,Active
same,Activity,Escherichia coli,Active
same,Kd,[15],5.9 nM
same,Kd,Lipoteichoic acid,48.9 nM
same,Activity,Acinetobacter baumannii [16],Active
same,Activity,HaCaT,Non-toxic
same,hemolysis,[17],< 1%
same,Activity,[18],Non-toxic
same,Activity,[19],Non-toxic
same,Activity,[20],Non-toxic
same,Activity,[21],Non-toxic
same,Activity,[22],Non-toxic
same,Activity,[23],Non-toxic
same,survival at 1.25 mg/kg,Acinetobacter baumannii [24],50%
same,survival at 120 h,[25],70%
CC[C@H](C)[C@H](NC(=O)[C@H](CCCCN)NC(=O)[C@H](CCC(=O)O)NC(=O)[C@H](CCCCN)NC(=O)[C@H](CO)NC(=O)[C@H](CCCCN)NC(=O)[C@H](CCCNC(=N)N)NC(=O)[C@H](Cc1ccccc1)NC(=O)[C@H](Cc1ccccc1)NC(=O)[C@H](CC(=O)O)NC(=O)CNC(=O)[C@H](CC(C)C)NC(=O)[C@@H](N)CC(C)C)C(=O)NCC(=O)N[C@@H](CCCCN)C(=O)N[C@@H](CCC(=O)O)C(=O)N[C@@H](Cc1ccccc1)C(=O)N[C@@H](CCCCN)C(=O)N[C@@H](CCCNC(=N)N)C(=O)N[C@H](C(=O)N[C@H](C(=O)N[C@@H](CCC(N)=O)C(=O)N[C@@H](CCCNC(=N)N)C(=O)N[C@H](C(=O)N[C@@H](CCCCN)C(=O)N[C@@H](CC(=O)O)C(=O)N[C@@H](Cc1ccccc1)C(=O)N[C@@H](CC(C)C)C(=O)N[C@@H](CCCNC(=N)N)C(=O)N[C@@H](CC(N)=O)C(=O)N[C@@H](CC(C)C)C(=O)N[C@H](C(=O)N1CCC[C@H]1C(=O)N[C@@H](CCCNC(=N)N)C(=O)N[C@H](C(=O)N[C@@H](CCC(=O)O)C(=O)N[C@@H](CO)C(=O)O)[C@@H](C)O)C(C)C)[C@@H](C)CC)C(C)C)[C@@H](C)CC [CATHELICIDIN],MIC,Acinetobacter baumannii [1],10 µg/mL
same,MIC,Acinetobacter baumannii [2],40 µg/mL
same,MIC,Staphylococcus aureus [3],320 µg/mL
same,MIC,Staphylococcus aureus [4],> 320 µg/mL
same,Activity,HUVEC,29%
same,Activity,A549,29%
H-KRIVIRIKRFLR-OH,MIC,Acinetobacter baumannii [1],10 µg/mL
same,MIC,Acinetobacter baumannii [2],20 µg/mL
same,MIC,Staphylococcus aureus [3],80 µg/mL
same,MIC,Staphylococcus aureus [4],160 µg/mL
H-KRIVKRIKDFLR-OH,MIC,Acinetobacter baumannii [1],80 µg/mL
same,MIC,Acinetobacter baumannii [2],160 µg/mL
same,MIC,Staphylococcus aureus [3],> 320 µg/mL
same,MIC,Staphylococcus aureus [4],> 320 µg/mL
H-KRIVKRIKIFLR-OH,MIC,Acinetobacter baumannii [1],10 µg/mL
same,MIC,Acinetobacter baumannii [2],20 µg/mL
same,MIC,Staphylococcus aureus [3],> 320 µg/mL
same,MIC,Staphylococcus aureus [4],80 µg/mL
H-KRIVKRIKKFLR-OH,MIC,Acinetobacter baumannii [1],> 320 µg/mL
same,MIC,Acinetobacter baumannii [2],160 µg/mL
same,MIC,Staphylococcus aureus [3],160 µg/mL
same,MIC,Staphylococcus aureus [4],> 320 µg/mL
H-KRIVKRIKRFLR-OH,MIC,Acinetobacter baumannii [1],80 µg/mL
same,MIC,Acinetobacter baumannii [2],80 µg/mL
same,MIC,Staphylococcus aureus [3],> 320 µg/mL
same,MIC,Staphylococcus aureus [4],> 320 µg/mL
H-KRIVQRIKDFLR-OH,MIC,Acinetobacter baumannii [1],160 µg/mL
same,MIC,Acinetobacter baumannii [2],> 320 µg/mL
same,MIC,Staphylococcus aureus [3],> 320 µg/mL
same,MIC,Staphylococcus aureus [4],> 320 µg/mL
same,MIC,Acinetobacter baumannii [5],320 µg/mL
same,MIC,Acinetobacter baumannii [6],320 µg/mL
same,MIC,Acinetobacter baumannii [7],320 µg/mL
same,MIC,Acinetobacter baumannii [8],160 µg/mL
same,MIC,Acinetobacter baumannii [9],160 µg/mL
same,MIC,Acinetobacter baumannii [10],160 µg/mL
same,MIC,Acinetobacter baumannii [11],160 µg/mL
same,MIC,Acinetobacter baumannii [12],160 µg/mL
same,Activity,Acinetobacter baumannii [26],19.5%
same,Activity,Acinetobacter baumannii [27],inactive
same,Kd,[15],171 nM
same,Kd,Lipoteichoic acid,241 nM
same,Activity,HaCaT,Non-toxic
